The values that follow are results of earlier work, collected in patent US20230158080A1 ([…], LLC, priority 2021, published 2023).

One data set has as its target androgen receptor (Homo sapiens, UniProt P10275). The settings on record: stimulation of EPCs.
A further data set has as its system EPC. The following applies: different doses of R1881.
In data set [1] the test system is CD34+/F1k1+ and CD34+/VE-cadherin+ cells. The following applies: castrated rats after testosterone supplementation.

Chain of androgen receptor (P10275 whole entry): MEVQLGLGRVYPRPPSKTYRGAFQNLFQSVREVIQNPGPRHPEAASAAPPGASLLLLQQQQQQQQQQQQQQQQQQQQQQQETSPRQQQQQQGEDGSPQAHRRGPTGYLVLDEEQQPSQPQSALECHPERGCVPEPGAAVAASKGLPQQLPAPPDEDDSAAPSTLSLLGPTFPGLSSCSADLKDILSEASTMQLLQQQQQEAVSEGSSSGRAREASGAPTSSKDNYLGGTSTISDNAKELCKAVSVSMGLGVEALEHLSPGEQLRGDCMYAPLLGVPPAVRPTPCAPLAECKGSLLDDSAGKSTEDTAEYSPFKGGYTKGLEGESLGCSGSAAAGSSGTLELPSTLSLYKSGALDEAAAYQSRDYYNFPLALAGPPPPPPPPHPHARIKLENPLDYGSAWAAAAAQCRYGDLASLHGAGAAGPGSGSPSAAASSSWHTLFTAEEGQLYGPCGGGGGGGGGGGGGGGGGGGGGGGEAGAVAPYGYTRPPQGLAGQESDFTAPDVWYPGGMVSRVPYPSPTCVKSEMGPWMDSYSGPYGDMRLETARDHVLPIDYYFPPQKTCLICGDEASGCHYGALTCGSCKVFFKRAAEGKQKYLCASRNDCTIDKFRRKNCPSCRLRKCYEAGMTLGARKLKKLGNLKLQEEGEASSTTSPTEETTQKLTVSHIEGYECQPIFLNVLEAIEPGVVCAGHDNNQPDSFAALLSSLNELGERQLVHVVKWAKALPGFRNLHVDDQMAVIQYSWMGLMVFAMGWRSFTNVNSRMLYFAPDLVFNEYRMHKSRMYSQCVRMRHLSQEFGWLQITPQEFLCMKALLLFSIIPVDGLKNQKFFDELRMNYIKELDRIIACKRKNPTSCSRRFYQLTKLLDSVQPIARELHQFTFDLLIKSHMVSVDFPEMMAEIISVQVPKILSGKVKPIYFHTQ

Take `C[C@]1(O)CC[C@H]2[C@@H]3CCC4=CC(=O)CCC4=C3C=C[C@@]21C` [R1881, methyltrienolone]: the “androgen receptor translocation in the nucleus” value on androgen receptor is “caused androgen receptor translocation in the nucleus”. The “EPC proliferation, migration and colony formation” value in the data set on EPC is listed as “dose-dependent increase”. Take `C[C@]12CC[C@H]3[C@@H](CCC4=CC(=O)CC[C@@]43C)[C@@H]1CC[C@@H]2O` [testosterone]: the “percentage of EPC marker-positive cells in corpus cavernosum” value in data set [1] is on record as “restored”.
